In PubChem BioAssay AID248 (DTP/NCI, 2004):
Inconclusive results and toxic doses are left out. Cut-off read from the data, not from the text of the source: active = T/C of 150% or more; inactive = T/C below 125%.

Test system: L1210 leukemia ip in BDF1 mice, survival T/C
Assay: NCI In Vivo Anticancer Drug Screen. Data for tumor model L1210 Leukemia (intraperitoneal) in B6D2F1 (BDF1) mice
Conditions: endpoint: mean survival time, higher = longer survival
Procedure, shortened: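 Survival endpoint. Drug-treated group vs vehicle group, expressed as T divided by C. Tumor passaged by transplantation.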

[1] = dose: 100.0 mg/kg/injection, schedule: Q01DX001 (ip), vehicle: saline
[2] = dose: 200.0 mg/kg/injection, schedule: Q01DX001 (ip), vehicle: saline
[3] = dose: 100.0 mg/kg/injection, schedule: Q04DX002 (ip), vehicle: Klucel (hydroxypropylcellulose) (HPC)
[4] = dose: 200.0 mg/kg/injection, schedule: Q04DX002 (ip), vehicle: Klucel (hydroxypropylcellulose) (HPC)
[5] = dose: 400.0 mg/kg/injection, schedule: Q04DX002 (ip), vehicle: Klucel (hydroxypropylcellulose) (HPC)
[6] = dose: 100.0 mg/kg/injection, schedule: Q01DX009 (ip), vehicle: Klucel (hydroxypropylcellulose) (HPC)
[7] = dose: 200.0 mg/kg/injection, schedule: Q01DX009 (ip), vehicle: Klucel (hydroxypropylcellulose) (HPC)
[8] = dose: 400.0 mg/kg/injection, schedule: Q01DX009 (ip), vehicle: Klucel (hydroxypropylcellulose) (HPC)
[9] = dose: 100.0 mg/kg/injection, schedule: Q01DX001 (ip), vehicle: saline with Tween-80
[10] = dose: 200.0 mg/kg/injection, schedule: Q01DX001 (ip), vehicle: saline with Tween-80
[11] = dose: 400.0 mg/kg/injection, schedule: Q01DX001 (ip), vehicle: saline with Tween-80
[12] = dose: 100.0 mg/kg/injection, schedule: Q04DX003 (ip), vehicle: Klucel (hydroxypropylcellulose) (HPC)
[13] = dose: 200.0 mg/kg/injection, schedule: Q04DX003 (ip), vehicle: Klucel (hydroxypropylcellulose) (HPC)
[14] = dose: 400.0 mg/kg/injection, schedule: Q04DX003 (ip), vehicle: Klucel (hydroxypropylcellulose) (HPC)

Measured: T/C

c1ccc([B-](c2ccccc2)([C+]2CCCCC2)N2CCCCC2)cc1
inactive: dose: 75.0 mg/kg/injection, schedule: Q01DX001 (ip), vehicle: carboxymethylcellulose (CMC) 104 % of control | dose: 150.0 mg/kg/injection, schedule: Q01DX001 (ip), vehicle: carboxymethylcellulose (CMC) 100 % of control

Clc1ccc(SSc2ccc(Cl)cc2)cc1
inactive: dose: 100.0 mg/kg/injection, schedule: Q04DX003 (ip), vehicle: saline with Tween-80 102 % of control | dose: 200.0 mg/kg/injection, schedule: Q04DX003 (ip), vehicle: saline with Tween-80 94 % of control | dose: 400.0 mg/kg/injection, schedule: Q04DX003 (ip), vehicle: saline with Tween-80 98 % of control

O=C(O)c1csnn1
inactive: [1] 102 % of control | [2] 97 % of control | dose: 400.0 mg/kg/injection, schedule: Q01DX001 (ip), vehicle: saline 103 % of control

CSc1ccc(NC(N)=O)cc1
inactive: [3] 103 % of control | [4] 120 % of control | [5] 95 % of control

C#CC(C)(O)CC(C)C (stereo not drawn)
inactive: [1] 100 % of control | [2] 100 % of control

CCOC(CCc1c(-c2ccccc2)nc(NC(C)=O)[nH]c1=O)OCC
inactive: [6] 105 % of control | [7] 100 % of control | [8] 92 % of control

NC(=S)NNC(=O)CN1C(=O)c2ccccc2C1=O
inactive: dose: 100.0 mg/kg/injection, schedule: Q01DX001 (ip), vehicle: Klucel (hydroxypropylcellulose) (HPC) 102 % of control | dose: 200.0 mg/kg/injection, schedule: Q01DX001 (ip), vehicle: Klucel (hydroxypropylcellulose) (HPC) 105 % of control | dose: 400.0 mg/kg/injection, schedule: Q01DX001 (ip), vehicle: Klucel (hydroxypropylcellulose) (HPC) 102 % of control

CC(=O)Cc1cc(C)nc(/N=C(\N)N2CCOCC2)n1
inactive: [3] 100 % of control | [4] 92 % of control | [5] 88 % of control

O=C(Oc1cc(Cl)c(S(=O)(=O)F)cc1Cl)c1ccc([N+](=O)[O-])cc1
inactive: [3] 99 % of control | [4] 99 % of control | [5] 92 % of control

COc1ccc2c(c1)c1c(C)c3cnccc3c(C)c1n2CCOC(C)=O
inactive: dose: 12.5 mg/kg/injection, schedule: Q01DX009 (ip), vehicle: saline 107 % of control | dose: 25.0 mg/kg/injection, schedule: Q01DX009 (ip), vehicle: saline 100 % of control | dose: 50.0 mg/kg/injection, schedule: Q01DX009 (ip), vehicle: saline 112 % of control | [9] 88 % of control | [10] 100 % of control | [11] 120 % of control

COc1ccc(C(=O)N/N=C/c2cccc3ccccc23)cc1
inactive: [6] 105 % of control | [7] 103 % of control | [8] 108 % of control

c1ccc(C2=Nc3ccccc3-c3ccccc3N2)cc1
inactive: [9] 100 % of control | [10] 103 % of control | [11] 106 % of control

CCOC(=O)c1cc(Cl)cc(Cl)c1N/N=[N+](\C)[O-]
inactive: dose: 50.0 mg/kg/injection, schedule: Q01DX009 (ip), vehicle: saline with Tween-80 117 % of control | dose: 100.0 mg/kg/injection, schedule: Q01DX009 (ip), vehicle: saline with Tween-80 87 % of control | dose: 200.0 mg/kg/injection, schedule: Q01DX009 (ip), vehicle: saline with Tween-80 93 % of control

COc1ccc(OC)c2c1C1C=CC2C1
inactive: dose: 177.0 mg/kg/injection, schedule: Q01DX001 (ip), vehicle: other 98 % of control | dose: 266.0 mg/kg/injection, schedule: Q01DX001 (ip), vehicle: other 94 % of control | dose: 400.0 mg/kg/injection, schedule: Q01DX001 (ip), vehicle: other 89 % of control | dose: 600.0 mg/kg/injection, schedule: Q01DX001 (ip), vehicle: other 96 % of control

Cn1ccc(=O)[nH]c1=O
inactive: [12] 96 % of control | [13] 89 % of control | [14] 115 % of control

Cc1ccc(NC(N)=S)nc1
inactive: [12] 100 % of control | [13] 94 % of control | [14] 99 % of control

Nc1cncnc1N
inactive: dose: 30.0 mg/kg/injection, schedule: Q01DX Z (ip), vehicle: saline 101 % of control | dose: 60.0 mg/kg/injection, schedule: Q01DX Z (ip), vehicle: saline 103 % of control | dose: 120.0 mg/kg/injection, schedule: Q01DX Z (ip), vehicle: saline 100 % of control | dose: 240.0 mg/kg/injection, schedule: Q01DX Z (ip), vehicle: saline 97 % of control

CC(C)OC(=O)N1CCN(C(=O)OC(C)C)CC1
inactive: [6] 97 % of control | [3] 93 % of control | [7] 94 % of control | [4] 93 % of control | [8] 102 % of control | [5] 117 % of control

CCCOc1ccc(C2=C(c3ccccc3)C(=O)C(c3ccccc3)=C2c2ccccc2)cc1
inactive: dose: 100.0 mg/kg/injection, schedule: Q01DX001 (ip), vehicle: carboxymethylcellulose (CMC) 94 % of control | dose: 200.0 mg/kg/injection, schedule: Q01DX001 (ip), vehicle: carboxymethylcellulose (CMC) 100 % of control | dose: 400.0 mg/kg/injection, schedule: Q01DX001 (ip), vehicle: carboxymethylcellulose (CMC) 94 % of control

COc1ccc(N=C2C(=O)Nc3ccc(Br)cc32)cc1
inactive: [3] 107 % of control | [4] 96 % of control | [5] 107 % of control

N#Cc1cc(Cl)c(OCc2ccccc2)c(Cl)c1
inactive: dose: 50.0 mg/kg/injection, schedule: Q01DX001 (ip), vehicle: saline with Tween-80 102 % of control | [9] 104 % of control | [10] 95 % of control

CCCc1c(OCC)c(OC)c2c3c(c(-c4c(C)cc5c(CCC)c(OCC)c(OC)c6c5c4OC6NNc4ccccc4)c(C)cc13)OC2NNc1ccccc1 (stereo not drawn)
inactive: dose: 75.0 mg/kg/injection, schedule: Q01DX001 (ip), vehicle: Klucel (hydroxypropylcellulose) (HPC) 98 % of control | dose: 150.0 mg/kg/injection, schedule: Q01DX001 (ip), vehicle: Klucel (hydroxypropylcellulose) (HPC) 93 % of control | dose: 300.0 mg/kg/injection, schedule: Q01DX001 (ip), vehicle: Klucel (hydroxypropylcellulose) (HPC) 91 % of control | dose: 300.0 mg/kg/injection, schedule: Q04DX003 (ip), vehicle: Klucel (hydroxypropylcellulose) (HPC) 87 % of control
